Key:
[1] = target: T1, mitochondrial benzodiazepine receptor (MBR) (Rattus norvegicus, UniProt P16257); experiment: Binding assay of mitochondrial benzodiazepine receptor (MBR), [3H]4'-chlorodiazepam (Ro5-4864), rat kidney membrane-preparation; conditions: rat kidney membranes, [3H]4'-chlorodiazepam 0.5 nM, 0° C. for 150 minutes
T1 construct: from tissue; host or cells: kidney of male Wistar rats (crude membrane preparation)
Method: The binding assay of central-type benzodiazepine receptor (CBR) and the preparation of receptor membrane-preparation were carried out according to the partially modified method of Braestrup, C. et al. [see; Br. J. Psychiatry, 133, 249-260 (1978)] with a minor modification; the binding assay of mitochondrial benzodiazepine receptor (MBR) and the preparation of receptor membrane-preparation were carried out according to the method of Schoemaker, H [see; J. Pharmacol. Exp. Ther., 225, 61-69 (1983)] with a minor modification.
CBR and MBR membrane-preparations were prepared from forebrain (CBR) and kidney (MBR) of male Wistar strain rats according to the following procedure, respectively.
To the forebrain of rat, 20 volumes of ice-cold 0.32 M sucrose solution to wet-weight of the tissue (1:20, wet-weight/vol) was added and homogenized, and then the homogenate was centrifuged at 900×g for 10 minutes. The supernatant was centrifuged at 11,500×g for 20 minutes, a buffer I for the binding assay (50 mM Tris-hydrochloric acid buffer, pH 7.5) was added to the resultant precipitate, and the mixture was homogenized, and then it was centrifuged at 30,000×g for 10 minutes. The resulting precipitate was washed 3 times according to the same operation, suspended in the buffer I (1 g of wet-weight of tissue/10 ml) and used as a CBR membrane-preparation for the binding assay. The CBR membrane-preparation was stored at −80° C. until use, and on the day of the assay, it was thawed and suspended in the buffer for use. On the other hand, kidney of rat was homogenized in 20 volumes of ice-cold buffer II for the binding assay to wet-weight of the tissue (1:20, wet-weight/vol) (50 mM sodium phosphate-potassium phosphate buffer solution containing 100 mM sodium chloride, pH 7.4), and then filtrated through 4 layers of gauze, and the filtrate was centrifuged at 40,000×g for 20 minutes. The resulting precipitate was suspended in the buffer II (1 g of wet-weight of tissue/50 ml) and used as a MBR membrane-preparation for the binding assay.
As a labeled ligand and a non-labeled ligand, [^3H]flunitrazepam (final concentration: 1 nM) and diazepam (final concentration: 20 μM) were used respectively, for the CBR binding assay, and [^3H]4′-chlorodiazepam (Ro5-4864, chemical name: 7-chloro-1,3-dihydro-1-methyl-5-(4-chloro-phenyl)-2H-1,4-[…]) (final concentration: 0.5 nM) and diazepam (final concentration: 50 μM) were used respectively, for the MBR binding assay. The binding assay of CBR was carried out by incubating at 0° C. for 30 minutes, while that of MBR was at 0° C. for 150 minutes.
The receptor binding assay was carried out in the following procedure. The test compound which the concentration was known, a tritium labeled ligand, a receptor membrane-preparation and the buffer I or II for the binding assay were added to a 96-well microplate in the total volume was 0.2 ml, and when the receptor membrane-preparation was added, the reaction started. After the incubation, the labeled ligand binding to the receptor was filtrated through a filter plate (UNI FILTER-96GF/B, PerkinElmer, the U.S.) using a cell harvester (PerkinElmer, the U.S.) to stop the reaction. The filter was immediately washed 6 times with 0.3 ml of the ice-cold buffer [50 mM Tris-hydrochloric acid buffer (pH 7.7)]. After 30 μl of liquid scintillation cocktail (MICROSCINTI 20, PerkinElmer, the U.S.) was added to each well on the dried filter plate, the radioactivity was measured with a TopCount. The specific binding amount was obtained by subtracting the non-specific binding amount which was simultaneously measured in the presence of non-labeled ligand from the total binding amount. The concentration that the test compound could decrease the specific binding amount of the labeled ligand to 50% of the amount (IC50 value) was analyzed using nonlinear least-squares method.

Molecule C[C@@H]1C[C@H](C)CN(C(=O)[C@@H]2Cc3ccccc3N2c2ccc(Cl)nn2)C1 [Example 36] has an IC50 [1] of 1.28 nM and a melting point of 182 to 184 °C.
COc1cccc2c1CC(C(=O)N1CCCC(C)C1)N2c1cccnn1 (racemic) [Example 85] gave an IC50 [1] of 3.69 nM and a melting point of 160 to 162 °C.
Molecule C[C@@H]1C[C@H](C)CN(C(=O)[C@@H]2Cc3ccccc3N2c2cncc(Cl)n2)C1 [Example 21] has an IC50 [1] of 1.23 nM and a melting point of 174 to 175 °C.
C[C@H]1CCCN(C(=O)[C@@H]2Cc3ccccc3N2c2ccc3nccn3n2)C1 [Example 78] showed an IC50 [1] of 2.53 nM and a melting point of 190 to 193 °C.
Molecule C[C@H]1CCCN(C(=O)[C@@H]2Cc3ccccc3N2c2cnccn2)C1 [Example 60, (S)-2-[(S)-3-methylpiperidin-1-yl]carbonyl-1-(2-pyrazinyl)indoline] has an IC50 [1] of 1.54 nM and a melting point of 174 to 175 °C.
Work on C[C@H]1CCCN(C(=O)[C@@H]2Cc3ccccc3N2c2nsc3ccccc23)C1 [Example 28] yielded an IC50 [1] of 5.72 nM and a melting point of 176 to 178 °C.
With CC1CCCN(C(=O)C2Cc3ccccc3N2c2ncccn2)C1 (centres unmarked) [Example 6] the IC50 [1] was 2.92 nM and the melting point was 156 to 158 °C.
With CC1CCCN(C(=O)[C@@H]2Cc3ccccc3N2c2cnccn2)C1 (some centres unmarked) [Example 59] the IC50 [1] was 12.9 nM and the melting point was 177 to 179 °C.
With C[C@@H]1C[C@H](C)CN(C(=O)[C@@H]2Cc3ccccc3N2c2cnccn2)C1 [Example 61, (S)-2-(cis-3,5-dimethylpiperidin-1-yl)carbonyl-1-(2-pyrazinyl)indoline] the IC50 [1] was 1.42 nM and the melting point was 162 to 164 °C.
With CCCn1nc(N2c3ccccc3C[C@H]2C(=O)N2CCC[C@H](C)C2)ccc1=O [Example 130] the IC50 [1] was 4.04 nM and the melting point was 183 to 185 °C.
For Cc1ccc(N2c3ccccc3CC2C(=O)N2C[C@H](C)C[C@H](C)C2)nc1 (relative stereo) [Example 11], the IC50 [1] was 1.84 nM and the melting point was 137 to 139 °C.
With C[C@@H]1C[C@H](C)CN(C(=O)[C@H]2Cc3ccccc3N2c2ncccn2)C1 [Example 42] the IC50 [1] was 14.3 nM and the melting point was 159 to 160 °C.
CC1CCCN(C(=O)C2Cc3cc(F)ccc3N2c2cccnn2)C1 (racemic) [Example 84] showed an IC50 [1] of 5.58 nM and a melting point of 155 to 157 °C.
Molecule CC1CC(C)CN(C(=O)[C@@H]2Cc3ccccc3N2c2ncccn2)C1 (some centres unmarked) [Example 25] has an IC50 [1] of 6.73 nM and a melting point of 237 to 239 °C.
C[C@H]1CCCN(C(=O)[C@@H]2Cc3cc(Br)ccc3N2c2ccc(=O)n(C)n2)C1 [Example 93] showed an IC50 [1] of 5.81 nM and a melting point of 241 to 242 °C.
C[C@@H]1C[C@H](C)CN(C(=O)C2Cc3ccccc3N2c2nc3ccccc3o2)C1 (relative stereo) [Example 5] showed an IC50 [1] of 2.28 nM and a melting point of 199 to 201 °C.
With O=C(C1Cc2ccccc2N1c1ncccn1)N1CCCC(CO)C1 (racemic) [Example 50] the IC50 [1] was 92.6 nM and the melting point was 124 to 128 °C.
With COc1cccc2c1CC(C(=O)N1CCCC(C)C1)N2c1ccc(=O)n(C)n1 (racemic) [Example 133] the IC50 [1] was 3.95 nM and the melting point was 181 to 182 °C.
C[C@H]1CCCN(C(=O)[C@@H]2Cc3ccccc3N2c2ccc3nnc(Cl)n3n2)C1 [Example 79, (S)-1-(3-chloro-1,2,4-triazolo[4,3-b]pyridazin-6-yl)-2-[[(S)-3-methylpiperidin-1-yl]carbonyl]indoline] gave an IC50 [1] of 1.76 nM and a melting point of 268 to 269 °C.
In the case of C[C@H]1CCCN(C(=O)[C@@H]2Cc3ccccc3N2c2cccnc2)C1 [Example 32], the IC50 [1] is reported as 0.727 nM and the melting point is reported as 114 to 115 °C.
Work on Cc1ccc(N2c3ccccc3C[C@H]2C(=O)N2CCC[C@H](C)C2)nn1 [Example 37] yielded an IC50 [1] of 3.23 nM and a melting point of 192 to 194 °C.
For C[C@H]1CCCN(C(=O)[C@@H]2Cc3ccccc3N2c2ccc(=O)n(CC(F)F)n2)C1 [Example 127], the IC50 [1] was 1.97 nM and the melting point was 173 to 175 °C.
Work on C[C@H]1CCCN(C(=O)[C@@H]2Cc3ccccc3N2c2cnc3ccccc3n2)C1 [Example 26] yielded an IC50 [1] of 0.851 nM and a melting point of 160 to 161 °C.
Work on COc1ccc(N2c3ccccc3C[C@H]2C(=O)N2CCC[C@H](C)C2)nn1 [Example 73, (S)-1-(6-Methoxypyridazin-3-yl)-2-[[(S)-3-methylpiperidin-1-yl]carbonyl]indoline] yielded an IC50 [1] of 3.35 nM and a melting point of 134 to 137 °C.
For O=C(C1Cc2ccccc2N1c1ncccn1)N1CCCC(F)(F)C1 (racemic) [Example 48], the IC50 [1] was 77 nM and the melting point was 172 to 174 °C.
In the case of C[C@H]1CCCN(C(=O)[C@@H]2Cc3cc(Br)ccc3N2c2cccnn2)C1 [Example 90], the IC50 [1] is reported as 6.54 nM and the melting point is reported as 161 to 163 °C.
C[C@H]1CCCN(C(=O)[C@@H]2Cc3cc(Cl)ccc3N2c2ccc(=O)n(C)n2)C1 [Example 94] showed an IC50 [1] of 16.7 nM and a melting point of 243 to 244 °C.
O=C(C1Cc2ccccc2N1c1ncccn1)N1CCCC(C(F)(F)F)C1 (racemic) [Example 49] showed an IC50 [1] of 3.98 nM and a melting point of 159 to 163 °C.
Work on CCc1cnc(N2c3ccccc3CC2C(=O)N2C[C@H](C)C[C@H](C)C2)nc1 (relative stereo) [Example 8] yielded an IC50 [1] of 2.05 nM and a melting point of 147 to 149 °C.
With C[C@@H]1C[C@H](C)CN(C(=O)C2Cc3ccccc3N2c2ccc(F)cn2)C1 (relative stereo) [Example 10] the IC50 [1] was 1.14 nM and the melting point was 139 to 141 °C.
In the case of Cc1ccc(N2c3ccccc3C[C@H]2C(=O)N2C[C@H](C)C[C@H](C)C2)nn1 [Example 38], the IC50 [1] is reported as 1.88 nM and the melting point is reported as 158 to 159 °C.
C[C@@H]1C[C@H](C)CN(C(=O)[C@@H]2Cc3ccccc3N2c2ccc([N+](=O)[O-])cn2)C1 [Example 30] showed an IC50 [1] of 1.29 nM and a melting point of 208 to 210 °C.
For CC1CC(C)CN(C(=O)C2Cc3ccccc3N2c2ccncn2)C1 (racemic) [Example 58], the IC50 [1] was 4.31 nM and the melting point was 107 to 109 °C.
With C[C@@H]1C[C@H](C)CN(C(=O)[C@@H]2Cc3ccccc3N2c2cnc3ccccc3n2)C1 [Example 27] the IC50 [1] was 1.66 nM and the melting point was 156 to 157 °C.
With CC(C)Cn1nc(N2c3ccccc3C[C@H]2C(=O)N2CCC[C@H](C)C2)ccc1=O [Example 75] the IC50 [1] was 2.77 nM and the melting point was 215 to 216 °C.
With C[C@@H]1CCCN(C(=O)[C@@H]2Cc3ccccc3N2c2nc3ccccc3o2)C1 [Example 16] the IC50 [1] was 1.17 nM and the melting point was 220 to 222 °C.
Molecule CC1CCCN(C(=O)C2Cc3cc(F)ccc3N2c2ccc(=O)n(C)n2)C1 (racemic) [Example 132] has an IC50 [1] of 10.1 nM and a melting point of 217 to 219 °C.
C[C@H]1CCCN(C(=O)[C@@H]2Cc3ccccc3N2c2ccc(=O)n(CCF)n2)C1 [Example 128, (S)-1-[1-(2-fluoroethyl)-6-oxo-1,6-dihydropyridazin-3-yl]-2-[[(S)-3-methylpiperidin-1-yl]carbonyl]indoline] gave an IC50 [1] of 3.91 nM and a melting point of 229 to 230 °C.
C[C@H]1CCCN(C(=O)[C@@H]2Cc3ccccc3N2c2nc3ccccc3s2)C1 [Example 14] showed an IC50 [1] of 0.823 nM and a melting point of 165 to 166 °C.
With CCCCn1nc(N2c3ccccc3C[C@H]2C(=O)N2CCC[C@H](C)C2)ccc1=O [Example 74] the melting point was 186 to 188 °C.
For C[C@H]1CCCN(C(=O)[C@@H]2Cc3ccccc3N2c2ccc(=O)n(CC(=O)c3ccccc3)n2)C1 (hydrate or solvate) [Example 124], the melting point was 255 °C (dec.).

Reference: US20080221114A1, “2-(Cyclic Aminocarbonyl) Indoline Derivative and Medicinal Composition Containing the Same” (priority 2005, published 2008)
